One block for each compound: values may come before it.
What was measured:
[1] = Odor threshold and odor value of perfuming compounds (Tables 4 to 10)
[2] = Volatility of perfuming compounds (Tables 4 to 10), with top/middle/bottom note type; type: physicochemical
Method in brief: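 Volatility is expressed in μg/l in air. Top notes are 70,000 to 100 μg/l, middle notes 99 to 50 μg/l, and bottom notes 49 to 0.1 μg/l. Compounds are grouped by olfactive family: watery, green, fruity, citrus, sweet, gourmand and woody.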

[3] = Table 4, watery note, equals volatility divided by odor threshold
[4] = Table 4, watery note, top, middle or bottom note
[5] = perfuming compounds having a green note
[6] = Table 6, perfuming compounds having a fruity note
[7] = Table 6, perfuming compounds having a fruity note, note type by volatility
[8] = note type (Top/Middle/Bottom) by volatility, perfuming compounds having a green note
[9] = Table 8, perfuming compounds having a sweet note
[10] = Table 8, perfuming compounds having a sweet note, note type by volatility
[11] = Table 9, perfuming compounds having a gourmand note, note type by volatility
[12] = Table 10, perfuming compounds having a woody note, note type by volatility
[13] = Table 7, citrus note, equals volatility divided by odor threshold
[14] = Table 7, citrus note, top, middle or bottom note

Compound: CC1(C)CCC[C@@]2(C)[C@H]1CC[C@@]1(C)OCC[C@@H]21
Odor Threshold ([1]; Table 10, woody note): 2.16E−03 μg/l air | Type [2, 12]: Bottom | Volatility ([2]; Table 10, woody note): 9.23 μg/l air

Compound: C=CCCCCCCCCC=O [10-undecenal]
Odor Threshold (μg/l air) ([1]; Table 4, watery note): 3.15E−03 μg/l air | Odor Value [1, 3]: 4.34E+04 | Volatility (μg/l air) ([2]; Table 4, watery note): 136.73 μg/l air | Type [2, 4]: TOP (perfuming compounds having a volatility ranging from 70,000 to 100 μg/l in air are referred to as “top notes”)

Compound: C[C@H]1[C@@H]2C[C@H](C[C@@]13C=CC(=O)CC3)C2(C)C
Odor Threshold [1, 6]: 6.32E−04 μg/l air | Odor Value [1, 6]: 6.54E+03 | Odor Threshold ([1]; Table 10, woody note): 6.32E−04 μg/l air | Volatility [2, 6]: 4.14 μg/l air | Type [2, 7]: Bottom | Type [2, 12]: Bottom | Volatility ([2]; Table 10, woody note): 4.14 μg/l air

Compound: 10-undecenal (A) + (9E)-9-undecenal (B) + (9Z)-9-undecenal (C)
Odor Threshold (μg/l air) ([1]; Table 4, watery note): 3.77E−05 μg/l air | Odor Value [1, 3]: 3.50E+06 | Volatility (μg/l air) ([2]; Table 4, watery note): 131.95 μg/l air | Type [2, 4]: TOP (perfuming compounds having a volatility ranging from 70,000 to 100 μg/l in air are referred to as “top notes”)

Compound: CC(=O)/C(C)=C(/C)C(C)C(C)(C)C (racemic)
Odor Threshold ([1]; Table 10, woody note): 7.24E−02 μg/l air | Type [2, 12]: Top | Volatility ([2]; Table 10, woody note): 659.22 μg/l air

Compound: C/C=C/c1ccc(OC)cc1 [1-methoxy-4-[(1E)-1-propen-1-yl]benzene]
Odor Threshold [1, 9]: 1.23E−03 μg/l air | Odor Value [1, 9]: 1.51E+05 | Odor Threshold ([1]; Table 9, gourmand note): 1.23E−03 μg/l air | Volatility [2, 6]: 184.60 μg/l air | Type [2, 7]: TOP (perfuming compounds having a volatility ranging from 70,000 to 100 μg/l in air are referred to as “top notes”) | Volatility [2, 9]: 184.60 μg/l air | Type [2, 10]: Top | Volatility ([2]; Table 9, gourmand note): 184.60 μg/l air | Type [2, 11]: Top

Compound: COC(C)(C)[C@H]1CC=C(C)CC1
Odor Threshold (μg/l air) [1, 5]: 1.99E−01 μg/l air | Type [2, 8]: Top | Volatility (μg/l air) [2, 5]: 993.39 μg/l air

Compound: ALLYL (3-METHYLBUTOXY)ACETATE (A) + (+−)-ALLYL (2-METHYLBUTOXY)ACETATE (B)
Odor Threshold (μg/l air) ([1]; Table 7, citrus note): 9.89E−05 μg/l air | Odor Value [1, 13]: 2.65E+06 | Volatility (μg/l air) ([2]; Table 7, citrus note): 261.90 μg/l air | Type [2, 14]: Top

Compound: COC(C)(C)CCCC(C)C(C)O (racemic)
Odor Threshold ([1]; Table 10, woody note): 2.66E−02 μg/l air | Type [2, 12]: Bottom | Volatility ([2]; Table 10, woody note): 35.54 μg/l air

Compound: CC(C)c1ccc2c(c1)OCC(=O)CO2 [7-ISOPROPYL-2H,4H-1,5-BENZODIOXEPIN-3-ONE]
Odor Threshold (μg/l air) ([1]; Table 4, watery note): 3.20E−06 μg/l air | Odor Value [1, 3]: 1.77E+07 | Volatility (μg/l air) ([2]; Table 4, watery note): 56.74 μg/l air | Type [2, 4]: middle (perfuming compounds having a volatility ranging from 99 to 50 μg/l in air are referred to as “middle notes”)

Compound: CC1CCC2C(C)(C)C3CC12CCC3(C)O (racemic)
Odor Threshold ([1]; Table 10, woody note): 3.38E−02 μg/l air | Type [2, 12]: Bottom | Volatility ([2]; Table 10, woody note): 11.83 μg/l air

Compound: CCCCC/C=C\CCC=O [(Z)-4-DECENAL]
Odor Threshold (μg/l air) [1, 5]: 3.78E−05 μg/l air | Type [2, 8]: Top | Volatility (μg/l air) [2, 5]: 629.54 μg/l air

Compound: CCC(CC(C)CC)=NO (stereo not shown) [5-METHYL-3-HEPTANONE OXIME]
Odor Threshold [1, 6]: 8.80E−03 μg/l air | Odor Value [1, 6]: 1.45E+04 | Odor Threshold [1, 9]: 8.80E−03 μg/l air | Odor Value [1, 9]: 1.45E+04 | Odor Threshold (μg/l air) [1, 5]: 8.80E−03 μg/l air | Volatility [2, 6]: 128.04 μg/l air | Type [2, 7]: TOP (perfuming compounds having a volatility ranging from 70,000 to 100 μg/l in air are referred to as “top notes”) | Volatility [2, 9]: 128.04 μg/l air | Type [2, 10]: Top | Type [2, 8]: Top | Volatility (μg/l air) [2, 5]: 128.04 μg/l air

Compound: O=C/C=C/c1ccccc1 [(E)-3-PHENYL-2-PROPENAL]
Odor Threshold ([1]; Table 10, woody note): 1.36E−03 μg/l air | Type [2, 12]: Middle | Volatility ([2]; Table 10, woody note): 70.14 μg/l air

Compound: CC1CCCC2(C)CCCCC12O (racemic)
Odor Threshold (μg/l air) [1, 5]: 5.32E−06 μg/l air | Type [2, 8]: Top | Volatility (μg/l air) [2, 5]: 330.48 μg/l air

Compound: CCC(O)COC1CCCCC1C(C)(C)C (racemic)
Odor Threshold ([1]; Table 10, woody note): 3.53E−02 μg/l air | Type [2, 12]: Top | Volatility ([2]; Table 10, woody note): 205.05 μg/l air

Compound: CC=CC(=O)C(C)CC (stereo not shown) [5-METHYL-2-HEPTEN-4-ONE]
Odor Threshold [1, 9]: 7.62E−07 μg/l air | Odor Value [1, 9]: 7.26E+09 | Volatility [2, 9]: 5525.83 μg/l air | Type [2, 10]: Top

Compound: CC1C(C)(C)C2=C(C(=O)CCC2)C1(C)C (stereo not shown)
Odor Threshold ([1]; Table 10, woody note): 4.57E−03 μg/l air | Type [2, 12]: Bottom | Volatility ([2]; Table 10, woody note): 29.81 μg/l air

Continued, in another order:

Volatility (μg/l air) ([2]; Table 4, watery note): 1.52 μg/l air
Compound: COC(=O)c1c(C)cc(O)c(C)c1O [METHYL 2,4-DIHYDROXY-3,6-DIMETHYLBENZOATE]
Odor Threshold (μg/l air) ([1]; Table 4, watery note): 4.89E−06 μg/l air | Odor Value [1, 3]: 3.11E+05 | Type [2, 4]: bottom (perfuming compounds having a volatility ranging from 49 to 0.1 μg/l in air are referred to as “bottom notes”)

Volatility [2, 6]: 155.12 μg/l air | Type [2, 8]: Top | Volatility (μg/l air) [2, 5]: 155.12 μg/l air
Compound: C[C@@H]1CC[C@@H](C(C)(C)S)C(=O)C1 [(1R,4R)-8-MERCAPTO-3-P-MENTHANONE]
Odor Threshold (μg/l air) [1, 5]: 3.43E−05 μg/l air | Type [2, 7]: TOP (perfuming compounds having a volatility ranging from 70,000 to 100 μg/l in air are referred to as “top notes”)

Volatility [2, 6]: 10.49 μg/l air | Type [2, 7]: Bottom | Volatility [2, 9]: 10.49 μg/l air | Type [2, 10]: Bottom | Volatility ([2]; Table 9, gourmand note): 10.49 μg/l air | Type [2, 11]: Bottom
Compound: CCCCCCC1CCC(=O)O1 (racemic) [(+−)-4-DECANOLIDE]
Odor Threshold [1, 6]: 1.61E−04 μg/l air | Odor Value [1, 6]: 6.51E+04 | Odor Threshold [1, 9]: 1.61E−04 μg/l air | Odor Value [1, 9]: 6.51E+04 | Odor Threshold ([1]; Table 9, gourmand note): 1.61E−04 μg/l air

Volatility [2, 6]: 1674.15 μg/l air | Type [2, 8]: Top | Volatility (μg/l air) [2, 5]: 1674.15 μg/l air
Compound: CC/C=C\CCOC(=O)CCC [(3Z)-3-hexen-1-yl butyrate]
Odor Threshold (μg/l air) [1, 5]: 7.85E−02 μg/l air | Type [2, 7]: TOP (perfuming compounds having a volatility ranging from 70,000 to 100 μg/l in air are referred to as “top notes”)

Volatility (μg/l air) ([2]; Table 4, watery note): 12.86 μg/l air
Compound: CC(C=O)Cc1ccc(C(C)(C)C)cc1 (racemic) [(+−)-2-methyl-3-[4-(2-methyl-2-propanyl)phenyl]propanal]
Odor Threshold (μg/l air) ([1]; Table 4, watery note): 2.39E−04 μg/l air | Odor Value [1, 3]: 5.38E+04 | Type [2, 4]: bottom (perfuming compounds having a volatility ranging from 49 to 0.1 μg/l in air are referred to as “bottom notes”)

Volatility (μg/l air) ([2]; Table 4, watery note): 632.43 μg/l air
Compound: CC/C=C\CC/C=C/C=O [(2E,6Z)-2,6-NONADIENAL″]
Odor Threshold (μg/l air) ([1]; Table 4, watery note): 1.46E−04 μg/l air | Odor Value [1, 3]: 4.34E+06 | Type [2, 4]: TOP (perfuming compounds having a volatility ranging from 70,000 to 100 μg/l in air are referred to as “top notes”)

Volatility [2, 6]: 1661.18 μg/l air | Type [2, 8]: Top | Volatility (μg/l air) [2, 5]: 1661.18 μg/l air
Compound: CCCCCCOC(=O)C(C)C [hexyl 2-methylpropanoate]
Odor Threshold (μg/l air) [1, 5]: 7.15E−01 μg/l air | Type [2, 7]: TOP (perfuming compounds having a volatility ranging from 70,000 to 100 μg/l in air are referred to as “top notes”)

Type [2, 8]: Top | Volatility (μg/l air) [2, 5]: 5986.62 μg/l air
Compound: CC/C=C\CCO [(Z)-3-HEXEN-1-OL]
Odor Threshold (μg/l air) [1, 5]: 1.13E−02 μg/l air

Volatility [2, 6]: 3.82 μg/l air | Type [2, 7]: Bottom | Volatility (μg/l air) ([2]; Table 7, citrus note): 3.82 μg/l air | Type [2, 14]: Bottom | Type [2, 8]: Bottom | Volatility (μg/l air) [2, 5]: 3.82 μg/l air
Compound: CCCCCCOC(=O)c1ccccc1O [HEXYL 2-HYDROXYBENZOATE]
Odor Threshold [1, 6]: 5.50E−03 μg/l air | Odor Value [1, 6]: 6.95E+02 | Odor Threshold (μg/l air) ([1]; Table 7, citrus note): 5.50E−03 μg/l air | Odor Value [1, 13]: 6.95E+02 | Odor Threshold (μg/l air) [1, 5]: 5.50E−03 μg/l air

Type [2, 12]: Top | Volatility ([2]; Table 10, woody note): 172.78 μg/l air
Compound: CC1=CCC(C(C)(C)O)CC1 (racemic) [(+−)-ALPHA-TERPINEOL]
Odor Threshold ([1]; Table 10, woody note): 1.03E−01 μg/l air

Type [2, 8]: Bottom | Volatility (μg/l air) [2, 5]: 0.96 μg/l air
Compound: N#CC(=C1CCCCC1)c1ccccc1 [CYCLOHEXYLIDENE(PHENYL)ACETONITRILE]
Odor Threshold (μg/l air) [1, 5]: 3.31E−04 μg/l air

Volatility (μg/l air) ([2]; Table 4, watery note): 63.49 μg/l air
Compound: (2R)-2-methyl-4-[(1R)-2,2,3-trimethyl-3-cyclopenten-1-yl]-4-pentenal (A) + (2S)-2-methyl-4-[(1R)-2,2,3-trimethyl-3-cyclopenten-1-yl]-4-pentenal (B)
Odor Threshold (μg/l air) ([1]; Table 4, watery note): 2.22E−03 μg/l air | Odor Value [1, 3]: 2.86E+04 | Type [2, 4]: middle (perfuming compounds having a volatility ranging from 99 to 50 μg/l in air are referred to as “middle notes”)

Volatility [2, 6]: 47.01 μg/l air | Type [2, 7]: Bottom | Type [2, 8]: Bottom | Volatility (μg/l air) [2, 5]: 47.01 μg/l air
Compound: C=CCOC(=O)COC1CCCCC1 [ALLYL (CYCLOHEXYLOXY)ACETATE]
Odor Threshold [1, 6]: 4.66E−05 μg/l air | Odor Value [1, 6]: 1.01E+06 | Odor Threshold (μg/l air) [1, 5]: 4.66E−05 μg/l air

Type [2, 8]: Top | Volatility (μg/l air) [2, 5]: 4147.61 μg/l air
Compound: CCCCCCCC=O [OCTANAL]
Odor Threshold (μg/l air) [1, 5]: 2.77E−04 μg/l air

Volatility [2, 6]: 57.43 μg/l air | Type [2, 7]: Middle | Volatility (μg/l air) ([2]; Table 7, citrus note): 57.43 μg/l air | Type [2, 14]: Middle
Compound: CCCC1CCCC(=O)O1 (racemic) [(+−)-6-propyltetrahydro-2H-pyran-2-one]
Odor Threshold [1, 6]: 2.17E−04 μg/l air | Odor Value [1, 6]: 2.65E+05 | Odor Threshold (μg/l air) ([1]; Table 7, citrus note): 2.17E−04 μg/l air | Odor Value [1, 13]: 2.65E+05
